Measurements taken from the supplement of paper PMC8920030.

Key:
Details in all cases: growth mode: biofilm, 24 h; exposure time: 24 h
[1] = compound: T1, NC[C@H]1O[C@H](O[C@H]2[C@H](O)[C@@H](O[C@H]3O[C@H](CO)[C@@H](O)[C@H](N)[C@H]3O)[C@H](N)C[C@@H]2N)[C@H](N)C[C@@H]1O [tobramycin]; assay: minimum concentration of killing, 1-log CFU reduction of biofilm (MCK90); higher = more biofilm tolerance
Method: (§1)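 Clinical P. aeruginosa isolates were grown as static biofilms for 24 h at 37 °C in LB in half-area 96-well plates, then exposed for 24 h to tobramycin at 1, 4, 16, 64, 256 or […]. Surviving CFU were counted by spotting serial dilutions. MCK is the lowest tested concentration giving the stated log reduction in CFU versus an untreated control; '>1024' means the reduction was not reached at the top dose, and 1 is the lowest dose tested (≤1).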

[2] = compound: T1, tobramycin; assay: minimum concentration of killing, 2-log CFU reduction of biofilm (MCK99); higher = more biofilm tolerance
Method: as §1

[3] = compound: T2, CCC(C)CCCC(=O)N[C@@H](CCN)C(=O)N[C@H](C(=O)N[C@@H](CCN)C(=O)N[C@H]1CCNC(=O)[C@H]([C@@H](C)O)NC(=O)[C@H](CCN)NC(=O)[C@H](CCN)NC(=O)[C@H](CC(C)C)NC(=O)[C@@H](CC(C)C)NC(=O)[C@H](CCN)NC1=O)[C@@H](C)O [colistin]; assay: minimum concentration of killing, 4-log CFU reduction of biofilm (MCK99.99); higher = more biofilm tolerance
Method: as §1, with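 “colistin” for “tobramycin”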

[4] = compound: T1, tobramycin; assay: minimum concentration eradicating biofilm below detection limit (MCK-E); higher = more biofilm tolerance
Method: as §1

[5] = compound: T2, colistin; assay: as above
Method: as §1, with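 “colistin” for “tobramycin”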

[6] = compound: T2, colistin; assay: minimum concentration of killing, 1-log CFU reduction of biofilm (MCK90); higher = more biofilm tolerance
Method: as §1, with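 “colistin” for “tobramycin”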

[7] = compound: T1, tobramycin; assay: minimum concentration of killing, 4-log CFU reduction of biofilm (MCK99.99); higher = more biofilm tolerance
Method: as §1

[8] = compound: T2, colistin; assay: minimum concentration of killing, 2-log CFU reduction of biofilm (MCK99); higher = more biofilm tolerance
Method: as §1, with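 “colistin” for “tobramycin”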

Row | Test System | minimum concentration of killing [1] [µg/mL] | minimum concentration of killing [2] [µg/mL] | minimum concentration of killing [3] [µg/mL] | minimum concentration eradicating biofilm below detection limit [4] [µg/mL] | minimum concentration eradicating biofilm below detection limit [5] [µg/mL] | minimum concentration of killing [6] [µg/mL] | minimum concentration of killing [7] [µg/mL] | minimum concentration of killing [8] [µg/mL]
1 | Pseudomonas aeruginosa clinical isolate F1864 | 1020 | 1020 | 256 | > 1020 | 1020 | 256 | 1020 | 256
2 | Pseudomonas aeruginosa clinical isolate F1880 | 64 | 1020 | 256 | 1020 | 256 | 256 | 1020 | 256
3 | Pseudomonas aeruginosa clinical isolate F1957 | 256 | 1020 | 256 | 1020 | 1020 | 256 | 1020 | 256
4 | Pseudomonas aeruginosa clinical isolate F1959 | 16 | 64 | 64 | > 1020 | 64 | 64 | 1020 | 64
5 | Pseudomonas aeruginosa clinical isolate F1968 | 4 | 64 | 256 | 1020 | 256 | 64 | 256 | 256
6 | Pseudomonas aeruginosa clinical isolate F2003 | ≤ 1 | 4 | 1020 | 1020 | 1020 | 64 | 256 | 256
7 | Pseudomonas aeruginosa clinical isolate F2005 | ≤ 1 | 16 | 256 | 1020 | 256 | 16 | 16 | 256
8 | Pseudomonas aeruginosa clinical isolate F2006 | ≤ 1 | ≤ 1 | 256 | 64 | 256 | 64 | 64 | 64
9 | Pseudomonas aeruginosa clinical isolate F2010 | 64 | 64 | 256 | 1020 | 1020 | 64 | 256 | 256
10 | Pseudomonas aeruginosa clinical isolate F2017 | 16 | 256 | 256 | > 1020 | > 1020 | 4 | 256 | 64
11 | Pseudomonas aeruginosa clinical isolate F2020 | 16 | 16 | 64 | 1020 | 256 | 16 | 256 | 64
